IC50 data for 27 molecules are collected here from US20070049593A1 (priority 2004, published 2007).

The assay deals with T1, HCV polymerase (Hepatitis C virus genotype 1b, UniProt P26663).
T1 construct: a region encoding NS5B (J Virol 1991 March, 65(3), 1105-13, 544 amino acids after deletion of 47 amino acids on the C-terminal); 6xHis (C); made in house; host or cells: Escherichia coli
Nature of the assay: biochemical. On the set-up: species or system HCV BK strain. The method, boiled down:
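Recombinant HCV BK-strain NS5B (C-terminal 47 aa deleted, His6-tagged, E. coli), 0.5 μg/ml, run with 5 μg/ml in vitro-transcribed RNA template (polyU/3′X), ATP/GTP/CTP 50 μM, UTP 2 μM plus [3H]UTP, pH 7.5, 25° C, 90 min. TCA-precipitated RNA counted by scintillation; IC50 from activity with vs without compound.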

The structures appear in SMILES notation. Structures can show the parent of a compound that is named as a salt. Where two headings read alike, the source gives them in different places. A value given as a limit tells only on which side of the number the result lay.

T1 sequence (P26663 2420-2963): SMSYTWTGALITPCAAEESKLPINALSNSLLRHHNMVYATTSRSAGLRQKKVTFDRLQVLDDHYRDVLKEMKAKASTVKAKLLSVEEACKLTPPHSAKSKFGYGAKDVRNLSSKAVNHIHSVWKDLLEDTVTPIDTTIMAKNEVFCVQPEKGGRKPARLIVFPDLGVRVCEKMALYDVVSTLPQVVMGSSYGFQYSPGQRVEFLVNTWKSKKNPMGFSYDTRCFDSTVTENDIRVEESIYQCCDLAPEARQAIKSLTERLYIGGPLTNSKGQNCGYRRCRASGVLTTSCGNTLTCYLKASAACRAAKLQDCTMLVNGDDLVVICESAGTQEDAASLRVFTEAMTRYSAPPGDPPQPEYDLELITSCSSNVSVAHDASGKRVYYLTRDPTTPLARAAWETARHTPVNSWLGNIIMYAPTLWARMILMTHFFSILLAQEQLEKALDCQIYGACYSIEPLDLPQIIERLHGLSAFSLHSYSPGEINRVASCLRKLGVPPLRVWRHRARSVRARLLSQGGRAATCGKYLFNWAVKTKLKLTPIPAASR

`CC(C)(NC(=O)c1ccc2c(C3CCCCC3)c3n(c2c1)CCOc1ccccc1-3)C(=O)N1CCOCC1` [Example 2-289, N-[1,1-dimethyl-2-(morpholin-4-yl)-2-oxoethyl]-12-cyclohexyl-6,7-dihydro-5-oxa-7a-azadibenzo[a,e]azulene-9-carboxamide]: the concentration for half-maximal inhibition (IC50) is less than 100 nM.

As to `O=C(O)c1ccc2c(C3CCCCC3)c3n(c2c1)CCOc1cc(Oc2cccc(Cl)c2)ccc1-3` [Example 2-26, 3-(3-chlorophenoxy)-12-cyclohexyl-6,7-dihydro-5-oxa-7a-azadibenzo[a,e]azulene-9-carboxylic acid], the IC50 is less than 100 nM.

The molecule `CC(C)C1CCCN(CCN2CCn3c(c(C4CCCCC4)c4ccc(C(=O)O)cc43)-c3ccccc32)C1` (stereo not drawn) [Example 1-364, 13-cyclohexyl-5-[2-(3-isopropylpiperidin-1-yl)ethyl]-6,7-dihydro-5H-benzo[5,6][1,4]diazepino[7,1-a]indole-10-carboxylic acid dihydrochloride] gave an IC50 of less than 100 nM.

`O=C(O)c1ccc2c(C3CCCCC3)c3n(c2c1)CCN(CCN1CCCC1=O)c1ccccc1-3` [Example 1-90, 13-cyclohexyl-5-[2-(2-oxopyrrolidin-1-yl)ethyl]-6,7-dihydro-5H-benzo[5,6][1,4]diazepino[7,1-a]indole-10-carboxylic acid monohydrochloride] displayed a concentration for half-maximal inhibition (IC50) of less than 100 nM.

The molecule `COCC[C@@H]1CCCN(CCN2CCn3c(c(C4CCCCC4)c4ccc(C(=O)O)cc43)-c3ccc(F)cc32)C1` [Example 1-434, 13-cyclohexyl-3-fluoro-5-{2-[(S)-3-(2-methoxyethyl)piperidin-1-yl]ethyl}-6,7-dihydro-5H-benzo[5,6][1,4]diazepino[7,1-a]indole-10-carboxylic acid dihydrochloride] returned an IC50 of less than 100 nM.

For the molecule `CCOc1ccc2c(c1)N(C)CCn1c-2c(C2CCCCC2)c2ccc(C(=O)NC(C)(C)C(=O)Nc3ccc(/C=C/C(=O)O)cc3)cc21` [Example 1-615, (E)-3-(4-{2-[(13-cyclohexyl-3-ethoxy-5-methyl-6,7-dihydro-5H-benzo[5,6][1,4]diazepino[7,1-a]indole-10-carbonyl)amino]-2-methylpropionylamino}phenyl)acrylic acid], the IC50 is less than 100 nM.

As to `O=C(O)c1ccc2c(C3CCCCC3)c3n(c2c1)CCN(CCN1CCCCCCC1)c1ccccc1-3` [Example 1-423, 5-[2-(azocan-1-yl)ethyl]-13-cyclohexyl-6,7-dihydro-5H-benzo[5,6][1,4]diazepino[7,1-a]indole-10-carboxylic acid dihydrochloride], the 50% inhibitory concentration (IC50) (read-out: HCV polymerase inhibitory activity IC50, 25° C., 90 min, [5,6-3H]UTP incorporation into RNA) was less than 100 nM.

Take `COC(=O)c1[nH]c(C(C)(C)NC(=O)c2ccc3c(C4CCCCC4)c4n(c3c2)CCOc2ccccc2-4)nc1C` [Example 2-209, methyl 2-{1-[(12-cyclohexyl-6,7-dihydro-5-oxa-7a-azadibenzo[a,e]azulene-9-carbonyl)amino]-1-methylethyl]-5-methyl-3H-imidazole-4-carboxylate]: the concentration for half-maximal inhibition (IC50) was less than 100 nM.

As to `O=C(O)c1ccc2c(C3CCCCC3)c3n(c2c1)CCN(CCCOC1CCCCO1)c1ccccc1-3` (stereo not drawn) [Example 1-105, 13-cyclohexyl-5-[3-(tetrahydropyran-2-yloxy)propyl]-6,7-dihydro-5H-benzo[5,6][1,4]diazepino[7,1-a]indole-10-carboxylic acid], the concentration for half-maximal inhibition (IC50) is less than 100 nM.

`COc1ccc2c(c1)OCCn1c-2c(C2CCCCC2)c2ccc(C(=O)NC(C)(C)c3nc4ccc(C(=O)N5CCN(C)CC5)cc4[nH]3)cc21` [Example 2-418, N-(1-methyl-1-[6-(4-methylpiperazine-1-carbonyl)-1H-benzimidazol-2-yl]ethyl}-12-cyclohexyl-3-methoxy-6,7-dihydro-5-oxa-7a-azadibenzo[a,e]azulene-9-carboxamide] had an IC50 of less than 100 nM.

For `CN1CCn2c(c(C3CCCCC3)c3ccc(C(=O)O)cc32)-c2ccc(OCCN3CCCCC3)cc21` [Example 1-437, 13-cyclohexyl-5-methyl-3-[2-(piperidin-1-yl)ethoxy]-6,7-dihydro-5H-benzo[5,6][1,4]diazepino[7,1-a]indole-10-carboxylic acid dihydrochloride], the IC50 was less than 100 nM.

The molecule `O=C(N[C@H](Cc1ccc(O)cc1)C(=O)O)c1ccc2c(C3CCCCC3)c3n(c2c1)CCOc1ccccc1-3` [Example 2-246, (R)-2-[(12-cyclohexyl-6,7-dihydro-5-oxa-7a-azadibenzo[a,e]azulene-9-carbonyl)amino]-3-(4-hydroxyphenyl)propionic acid] came in with an IC50 of less than 100 nM.

Consider `CN(C)C(=O)c1ccc(NC(=O)C(C)(C)NC(=O)c2ccc3c(C4CCCCC4)c4n(c3c2)CCOc2ccccc2-4)cc1` [Example 2-194, N-[1-(4-dimethylcarbamoylphenylcarbamoyl)-1-methylethyl]-12-cyclohexyl-6,7-dihydro-5-oxa-7a-azadibenzo[a,e]azulene-9-carboxamide], for which the IC50 was less than 100 nM.

`CCN1CCCC(CCN2CCn3c(c(C4CCCCC4)c4ccc(C(=O)O)cc43)-c3ccccc32)C1` (stereo not drawn) [Example 1-166, 13-cyclohexyl-5-[2-(1-ethylpiperidin-3-yl)ethyl]-6,7-dihydro-5H-benzo[5,6][1,4]diazepino[7,1-a]indole-10-carboxylic acid dihydrochloride] had a half-inhibitory concentration (IC50) of less than 100 nM.

`O=C(CN1CCn2c(c(C3CCCCC3)c3ccc(C(=O)O)cc32)-c2ccccc21)NCc1ccccc1` [Example 1-25, 5-(benzylcarbamoylmethyl)-13-cyclohexyl-6,7-dihydro-5H-benzo[5,6][1,4]diazepino[7,1-a]indole-10-carboxylic acid] came in with an IC50 of less than 100 nM.

In turn, `O=C(O)c1ccc2c(C3CCCCC3)c3n(c2c1)CCN(CCN1CCCCCC1)c1ccccc1-3` [Example 1-83, 5-[2-(azepan-1-yl)ethyl]-13-cyclohexyl-6,7-dihydro-5H-benzo[5,6][1,4]diazepino[7,1-a]indole-10-carboxylic acid dihydrochloride] yielded an IC50 of less than 100 nM.

Take `O=C(O)c1ccc2c(C3CCCCC3)c3n(c2c1)CCN(CC1CCOCC1)c1ccccc1-3` [Example 1-120, 13-cyclohexyl-5-(tetrahydropyran-4-ylmethyl)-6,7-dihydro-5H-benzo[5,6][1,4]diazepino[7,1-a]indole-10-carboxylic acid monohydrochloride]: the IC50 was less than 100 nM.

Molecule `CN(C)CCN1CCn2c(c(C3CCCCC3)c3ccc(C(=O)O)cc32)-c2ccc(OCc3cc(S(C)(=O)=O)ccc3N3CCOCC3)cc21` [Example 1-309, 13-cyclohexyl-5-(2-dimethylaminoethyl)-3-[5-methanesulfonyl-2-(morpholin-4-yl)benzyloxy]-6,7-dihydro-5H-benzo[5,6][1,4]diazepino[7,1-a]indole-10-carboxylic acid trihydrochloride] registered a concentration for half-maximal inhibition (IC50) of less than 100 nM.

`CSc1ccc2c(c1)N(CCN1CCCCCC1)CCn1c-2c(C2CCCCC2)c2ccc(C(=O)O)cc21` [Example 1-289, 5-[2-(azepan-1-yl)ethyl]-13-cyclohexyl-3-methylsulfanyl-6,7-dihydro-5H-benzo[5,6][1,4]diazepino[7,1-a]indole-10-carboxylic acid dihydrochloride] came in with an IC50 of less than 100 nM.

The molecule `C[C@@H]1CCC[C@H](C)N1CCN1CCn2c(c(C3CCCCC3)c3ccc(C(=O)O)cc32)-c2ccccc21` [Example 1-193, 13-cyclohexyl-5-[2-((2S,6R)-2,6-dimethylpiperidin-1-yl)ethyl]-6,7-dihydro-5H-benzo[5,6][1,4]diazepino[7,1-a]indole-10-carboxylic acid dihydrochloride] yielded an IC50 of less than 100 nM.

On to `O=C(O)c1ccc2c(C3CCCCC3)c3n(c2c1)CCOc1c-3cccc1N(CCO)CCN1CCCCC1` [Example 2-261, 12-cyclohexyl-4-{N-(2-hydroxyethyl)-N-[2-(piperidin-1-yl)ethyl]amino}-6,7-dihydro-5-oxa-7a-azadibenzo[a,e]azulene-9-carboxylic acid dihydrochloride], for which the IC50 is less than 100 nM.

As for `O=C(O)c1ccc2c(C3CCCCC3)c3n(c2c1)CCOc1c(OCCC2CCNCC2)cccc1-3` [Example 2-458, 12-cyclohexyl-4-[2-(piperidin-4-yl)ethoxy]-6,7-dihydro-5-oxa-7a-azadibenzo[a,e]azulene-9-carboxylic acid monohydrochloride], the IC50 was less than 100 nM.

Consider `CC(C)(COc1ccc(C(=O)O)cc1)NC(=O)c1ccc2c(C3CCCCC3)c3n(c2c1)CCOc1ccccc1-3` [Example 2-156, 4-{2-[(12-cyclohexyl-6,7-dihydro-5-oxa-7a-azadibenzo[a,e]azulene-9-carbonyl)amino]-2-methylpropoxy}benzoic acid], for which the IC50 was less than 100 nM.

Molecule `Cc1ccc2c(c1)OCCn1c-2c(C2CCCCC2)c2ccc(C(=O)O)cc21` [Example 2-479, 12-cyclohexyl-3-methyl-6,7-dihydro-5-oxa-7a-azadibenzo[a,e]azulene-9-carboxylic acid] displayed an IC50 of less than 100 nM.

`O=C(O)c1ccc2c(C3CCCCC3)c3n(c2c1)CCSc1ccccc1-3` [Example 12-1, 12-cyclohexyl-6,7-dihydro-5-thia-7a-azadibenzo[a,e]azulene-9-carboxylic acid] registered an IC50 of less than 100 nM.

`Cc1ccc2c(c1)N(CCC1CCCCC1)CCn1c-2c(C2CCCCC2)c2ccc(C(=O)O)cc21` [Example 1-492, 13-cyclohexyl-5-(2-cyclohexylethyl)-3-methyl-6,7-dihydro-5H-benzo[5,6][1,4]diazepino[7,1-a]indole-10-carboxylic acid] showed an IC50 of less than 100 nM.

For the molecule `O=C(O)c1ccc2c(C3CCCCC3)c3n(c2c1)CCN(CCN1CCCC(O)C1)c1ccccc1-3` (stereo not drawn) [Example 1-113, 13-cyclohexyl-5-[2-(3-hydroxypiperidin-1-yl)ethyl]-6,7-dihydro-5H-benzo[5,6][1,4]diazepino[7,1-a]indole-10-carboxylic acid dihydrochloride], the 50% inhibitory concentration (IC50) is less than 100 nM.

The IC50 is the concentration that inhibits the measured activity by half.
